{"source": "ChEMBL document CHEMBL4052804", "about": "“Design and synthesis of piperazine acetate podophyllotoxin ester derivatives targeting tubulin depolymerization as new anticancer agents” (Bioorg Med Chem Lett, 2017)", "key": {"[1]": {"system": "MCF7", "test": "Cell cycle arrest in human MCF7 cells assessed as accumulation at G1 phase at 0.3 uM after 12 hrs by propidium iodide staining based flow cytometric method (reference value: 58.69 to 62.23%)", "type": "functional"}, "[2]": {"system": "MCF7", "test": "Cell cycle arrest in human MCF7 cells assessed as accumulation at G1 phase at 0.6 uM after 12 hrs by propidium iodide staining based flow cytometric method (reference value: 58.69 to 62.23%)", "type": "functional"}, "[3]": {"system": "MCF7", "test": "Cell cycle arrest in human MCF7 cells assessed as accumulation at S phase at 0.9 uM after 12 hrs by propidium iodide staining based flow cytometric method (reference value: 27.63 to 32.34%)", "type": "functional"}, "[4]": {"system": "MCF7", "test": "Cell cycle arrest in human MCF7 cells assessed as accumulation at S phase at 0.6 uM after 8 hrs by propidium iodide staining based flow cytometric method (reference value: 29.55 to 32.22%)", "type": "functional"}, "[5]": {"system": "MCF7", "test": "Cell cycle arrest in human MCF7 cells assessed as accumulation at G1 phase at 0.6 uM after 16 hrs by propidium iodide staining based flow cytometric method (reference value: 60.19 to 60.87%)", "type": "functional"}, "[6]": {"system": "MCF7", "test": "Induction of apoptosis in human MCF7 cells assessed as viable cells at 2 uM after 24 hrs by Annexin-V-FITC/propidium iodide staining based flow cytometric method (reference value: 91.6 to 92.7%)", "type": "functional", "conditions": "MCF7, 24 h, read-out: Activity"}, "[7]": {"system": "MCF7", "test": "Induction of apoptosis in human MCF7 cells assessed as necrotic cells at 4 uM after 24 hrs by Annexin-V-FITC/propidium iodide staining based flow cytometric method (reference value: 2.35 to 2.49%)", "type": "functional"}, "[8]": {"system": "MCF7", "test": "Induction of apoptosis in human MCF7 cells assessed as late apoptotic cells at 12 uM after 24 hrs by Annexin-V-FITC/propidium iodide staining based flow cytometric method (reference value: 2 to 3.7%)", "type": "functional"}, "[9]": {"system": "MCF7", "test": "Down regulation of cyclin A expression in human MCF7 cells at 0.5 to 2 uM after 24 hrs by Western blot analysis", "type": "functional, cell-based"}, "[10]": {"system": "MCF7", "test": "Down regulation of cyclin B1 expression in human MCF7 cells at 0.5 to 2 uM after 24 hrs by Western blot analysis", "type": "functional, cell-based"}}, "note": "Active and inactive are the calls of the source. No cut-off for these calls is given here.", "data": [{"smiles": "COc1cc([C@@H]2c3cc4c(cc3[C@H](OC(=O)CN3CCN(c5ccc(Cl)c(Cl)c5)CC3)[C@H]3COC(=O)[C@H]23)OCO4)cc(OC)c1OC", "values": [{"measurement": "Activity", "setting": "[1]", "result": 38.07, "unit": "%"}, {"measurement": "Activity", "setting": "[2]", "result": "18.24 - 26.54%"}, {"measurement": "Activity", "setting": "[3]", "result": 10.65, "unit": "%"}, {"measurement": "Activity", "setting": "[4]", "result": 26.13, "unit": "%"}, {"measurement": "Activity", "setting": "[5]", "result": 8.51, "unit": "%"}, {"measurement": "viability at 2 µM", "setting": "[6]", "result": 81.2, "unit": "%"}, {"measurement": "Activity", "setting": "[7]", "result": 5.64, "unit": "%"}, {"measurement": "Activity", "setting": "[8]", "result": 20.4, "unit": "%"}, {"measurement": "Activity", "setting": "[9]", "result": "Active"}, {"measurement": "Activity", "setting": "[10]", "result": "Active"}]}]}
